Data published in ChEMBL document CHEMBL1773045, “Conjugate (MTC-220) of muramyl dipeptide analogue and paclitaxel prevents both tumor growth and metastasis in mice” (J Med Chem, 2011).
Calls of active or inactive are those of the source. The rule behind the calls is not given here.

Legend:
[1] = Antitumor activity against human ES2 cells xenografted in nu/nu BALB/c mouse assessed as tumor growth inhibition at 30 mg/kg, ip qd for 12 days measured on day 21 relative to control; format: functional; settings: ES-2, ip, route intraperitoneal, read-out: GI
Mus musculus [2] = experiment: Toxicity in human cancer cells xenografted in nu/nu BALB/c mouse assessed as mortality at 5 to 30 mg/kg, ip qd for 24 days; format: organism-based, Cancer cell lines; parameters: dose 5-30 mg/kg, route intraperitoneal; settings: in vivo, 576 h
SK-MEL-28 = experiment: Growth inhibition of human SK-MEL-28 cells after 48 hrs by sulforhodamine B assay; format: functional; settings: SK-MEL-28, 48 h
NCI-H460 [3] = experiment: Antitumor activity against human H460 cells xenografted in nu/nu BALB/c mouse assessed as tumor growth inhibition at 20 mg/kg, ip qd for 24 days measured on day 25 relative to control; format: functional; settings: route intraperitoneal, read-out: GI
SF-539 = experiment: Growth inhibition of human SF539 cells after 48 hrs by sulforhodamine B assay; format: functional; settings: SF-539, 48 h
MDA-MB-435 = experiment: Growth inhibition of human MDA-MB-435 cells after 48 hrs by sulforhodamine B assay; format: functional; settings: MDA-MB-435, 48 h
786-0 = experiment: Growth inhibition of human 786-0 cells after 48 hrs by sulforhodamine B assay; format: functional; settings: 786-0, 48 h
Mus musculus [4] = experiment: Toxicity in mouse 4T1 cells xenografted […] mouse assessed as decrease in body weight at 2.5 to 10 mg/kg, ip qd for 28 days; format: organism-based; parameters: dose 2.5-10 mg/kg, route intraperitoneal; settings: in vivo, 672 h
4T1 [5] = experiment: Antimetastatic activity against mouse 4T1 cells xenografted in […] mouse assessed as inhibition of lung metastasis at 2.5 to 10 mg/kg, ip qd for 28 days; format: functional, organism-based
MCF7 = experiment: Growth inhibition of human MCF7 cells after 48 hrs by sulforhodamine B assay; format: functional; settings: MCF7, 48 h
CCRF-CEM = experiment: Growth inhibition of human CCRF-CEM cells after 48 hrs by sulforhodamine B assay; format: functional
IGROV-1 = experiment: Growth inhibition of human IGROV1 cells after 48 hrs by sulforhodamine B assay; format: functional; settings: IGROV-1, 48 h
[6] = Growth inhibition of human Hs 578T cells after 48 hrs by sulforhodamine B assay; format: functional
T47D = experiment: Growth inhibition of human T47D cells after 48 hrs by sulforhodamine B assay; format: functional
CAKI-1 = experiment: Growth inhibition of human Caki1 cells after 48 hrs by sulforhodamine B assay; format: functional; settings: CAKI-1, 48 h
ACHN = experiment: Growth inhibition of human ACHN cells after 48 hrs by sulforhodamine B assay; format: functional
NCI-H522 = experiment: Growth inhibition of human NCI-H522 cells after 48 hrs by sulforhodamine B assay; format: functional; settings: NCI-H522, 48 h
OVCAR-4 = experiment: Growth inhibition of human OVCAR4 cells after 48 hrs by sulforhodamine B assay; format: functional; settings: OVCAR-4, 48 h
HCT-8 = experiment: Cytotoxicity against human HCT8 cells after 72 hrs by MTT assay; format: functional, cell-based
A2780 = experiment: Cytotoxicity against human A2780 cells after 72 hrs by MTT assay; format: functional, cell-based
SNB-75 = experiment: Growth inhibition of human SNB75 cells after 48 hrs by sulforhodamine B assay; format: functional; settings: SNB-75, 48 h
NCI-H23 = experiment: Growth inhibition of human NCI-H23 cells after 48 hrs by sulforhodamine B assay; format: functional; settings: NCI-H23, 48 h
COLO 205 = experiment: Growth inhibition of human COLO205 cells after 48 hrs by sulforhodamine B assay; format: functional; settings: COLO 205, 48 h
Mus musculus [7] = experiment: Antimetastatic activity against mouse 4T1 cells xenografted in BALB/c mouse assessed as reduction of CCL2 mRNA expression in tumor at 5 mg/kg, ip qd for 23 days by RT-PCR analysis; format: functional, organism-based; parameters: dose 5 mg/kg
UO-31 = experiment: Growth inhibition of human UO31 cells after 48 hrs by sulforhodamine B assay; format: functional; settings: UO-31, 48 h
NCI-H460 [8] = experiment: Antitumor activity against human H460 cells xenografted in nu/nu BALB/c mouse assessed as tumor growth inhibition at 10 mg/kg, ip qd for 24 days measured on day 25 relative to control; format: functional; settings: route intraperitoneal, read-out: GI
UACC-62 = experiment: Growth inhibition of human UACC62 cells after 48 hrs by sulforhodamine B assay; format: functional; settings: UACC-62, 48 h
Mus musculus [9] = experiment: Toxicity in human cancer cells xenografted in nu/nu BALB/c mouse assessed as side effects at 5 to 30 mg/kg, ip qd for 24 days; format: organism-based, Cancer cell lines; parameters: dose 5-30 mg/kg, route intraperitoneal; settings: in vivo, 576 h
UACC-257 = experiment: Growth inhibition of human UACC257 cells after 48 hrs by sulforhodamine B assay; format: functional; settings: UACC-257, 48 h
MOLT-4 = experiment: Growth inhibition of human MOLT4 cells after 48 hrs by sulforhodamine B assay; format: functional; settings: MOLT-4, 48 h
HL-60(TB) = experiment: Growth inhibition of human HL-60(TB) cells after 48 hrs by sulforhodamine B assay; format: functional; settings: HL-60, 48 h
HT-29 = experiment: Growth inhibition of human HT-29 cells after 48 hrs by sulforhodamine B assay; format: functional; settings: HT-29, 48 h
SF-295 = experiment: Growth inhibition of human SF295 cells after 48 hrs by sulforhodamine B assay; format: functional; settings: SF-295, 48 h
Mus musculus [10] = experiment: Antimetastatic activity against mouse 4T1 cells xenografted in BALB/c mouse assessed as reduction of myeloid derived suppressor cells accumulation in bone marrow at 5 mg/kg, ip qd for 23 days by flow cytometry analysis relative to control; format: functional; parameters: scale not given: the % may be the effect or the level left; settings: route intraperitoneal
4T1 [11] = experiment: Antitumor activity against mouse 4T1 cells xenografted in […] mouse assessed as tumor growth inhibition at 2.5 mg/kg, ip qd for 28 days relative to control; format: functional; settings: 4T1, ip, 672 h, route intraperitoneal, read-out: GI
NCI-H1975 = experiment: Antitumor activity against human NCI-H1975 cells xenografted in nu/nu BALB/c mouse assessed as tumor growth inhibition at 30 mg/kg, ip qd for 12 days measured on day 25 relative to control; format: functional; settings: route intraperitoneal, read-out: GI
SN12C = experiment: Growth inhibition of human SN12C cells after 48 hrs by sulforhodamine B assay; format: functional
A549 = experiment: Growth inhibition of human A549 cells after 48 hrs by sulforhodamine B assay; format: functional; settings: A549, 48 h
M14 = experiment: Growth inhibition of human M14 cells after 48 hrs by sulforhodamine B assay; format: functional; settings: M14, 48 h
U-251 = experiment: Growth inhibition of human U251 cells after 48 hrs by sulforhodamine B assay; format: functional; settings: U-251, 48 h
MDA-MB-231 = experiment: Growth inhibition of human MDA-MB-231 cells after 48 hrs by sulforhodamine B assay; format: functional; settings: MDA-MB-231, 48 h
OVCAR-8 = experiment: Growth inhibition of human OVCAR8 cells after 48 hrs by sulforhodamine B assay; format: functional; settings: OVCAR-8, 48 h
Malme-3M = experiment: Growth inhibition of human MALME-3M cells after 48 hrs by sulforhodamine B assay; format: functional
PC-3M = experiment: Cytotoxicity against human PC3M cells after 72 hrs by MTT assay; format: functional, cell-based

CC(=O)O[C@H]1C(=O)[C@@]2(C)[C@H]([C@H](OC(=O)c3ccccc3)[C@]3(O)C[C@H](OC(=O)[C@H](OC(=O)CCC(=O)NCCCC[C@H](NC(=O)CC[C@H](NC(=O)[C@H](C)NC(=O)/C=C/c4ccc(Cl)cc4)C(N)=O)C(N)=O)[C@H](NC(=O)c4ccccc4)c4ccccc4)C(C)=C1C3(C)C)[C@]1(OC(C)=O)CO[C@@H]1C[C@@H]2O
inhibition in vivo at 30 mg/kg [1]: 36.4%
Activity (Mus musculus [2]): Non-toxic
GI50 (SK-MEL-28): < 10 nM
inhibition in vivo at 20 mg/kg (NCI-H460 [3]): 52.9%
GI50 (SF-539): < 10 nM
GI50 (MDA-MB-435): < 10 nM
GI50 (786-0): < 10 nM
Activity (Mus musculus [4]): Non-toxic
growth inhibition (GI) (4T1 [5]): Active
GI50 (MCF7): < 10 nM
GI50 (CCRF-CEM): < 10 nM
GI50 (IGROV-1): < 10 nM
GI50 [6]: < 10 nM
GI50 (T47D): < 10 nM
GI50 (CAKI-1): < 10 nM
GI50 (ACHN): < 10 nM
GI50 (NCI-H522): < 10 nM
GI50 (OVCAR-4): < 10 nM
Activity (HCT-8): Active
Activity (A2780): Active
GI50 (SNB-75): < 10 nM
GI50 (NCI-H23): < 10 nM
GI50 (COLO 205): < 10 nM
Activity (Mus musculus [7]): Active
GI50 (UO-31): < 10 nM
inhibition in vivo at 10 mg/kg (NCI-H460 [8]): 17.3%
GI50 (UACC-62): < 10 nM
Activity (Mus musculus [9]): Non-toxic
GI50 (UACC-257): < 10 nM
GI50 (MOLT-4): < 10 nM
GI50 (HL-60(TB)): < 10 nM
GI50 (HT-29): < 10 nM
GI50 (SF-295): < 10 nM
Activity (Mus musculus [10]): 45.3%
inhibition in vivo at 2.5 mg/kg (4T1 [11]): 27.4%
inhibition in vivo at 30 mg/kg (NCI-H1975): 93.1%
GI50 (SN12C): < 10 nM
GI50 (A549): < 10 nM
GI50 (M14): < 10 nM
GI50 (U-251): < 10 nM
GI50 (MDA-MB-231): < 10 nM
GI50 (OVCAR-8): < 10 nM
GI50 (Malme-3M): < 10 nM
Activity (PC-3M): Active
